One assay deals with SF-295. Kind of assay: 2-day cell growth assay, SF-295. The format is cell-based, human. Here is the method:
(§1) The primary endpoints of these assays are the formazan XTT, or alternatively, and in preference, the protein stain sulforhodamine B. All samples are tested in […] 10-fold dilutions with no drug and no-cell controls on each microtiter plate. IC50 values are calculated using SOFTMAX™ software as supplied by the manufacturer of the microplate reader.

For assay [1], the system named is UO-31. Kind of assay: 2-day cell growth assay, UO-31. The class given is cell-based, human. Here is the method: as §1
For a further assay, the system named is 786-0. The assay can be described thus: NCI 60-cell line protocol, 786-0. The format is cell-based, human. As to conditions: two days exposure, SRB endpoint. Here is the method: (§2) Samples are tested in the standard National Cancer Institute 60-cell line protocol. First, they are tested against all 60 cell lines in a single final concentration of 10 micromolar. Then, they are separately tested in five 10-fold dilutions. The drug exposure is two days, with an SRB endpoint.

A further assay deals with A498. Kind of assay: NCI 60-cell line protocol, A498. The class given is cell-based, human. As to conditions: two days exposure, SRB endpoint. Here is the method:
as §2

In a further assay the test system is ACHN. The assay can be described thus: NCI 60-cell line protocol, ACHN. The class given is cell-based, human. The following applies: two days exposure, SRB endpoint. Here is the method: as §2
The subject of a further assay is CAKI-1. The assay can be described thus: NCI 60-cell line protocol, CAKI-1. The class given is cell-based, human. As to conditions: two days exposure, SRB endpoint. How it is done: as §2
Another assay relates to RXF-393. The assay can be described thus: NCI 60-cell line protocol, RXF-393. The class given is cell-based, human. As to conditions: two days exposure, SRB endpoint. Here is the method:
as §2

The next assay concerns SN12C. The assay can be described thus: NCI 60-cell line protocol, SN12C. The class given is cell-based, human. The following applies: two days exposure, SRB endpoint. How it is done: as §2
The next assay relates to TK-10. Kind of assay: NCI 60-cell line protocol, TK-10. The class given is cell-based, human. The following applies: two days exposure, SRB endpoint. How it is done: as §2
Assay [2] deals with UO-31. The assay can be described thus: NCI 60-cell line protocol, UO-31. The class given is cell-based, human. As to conditions: two days exposure, SRB endpoint. How it is done: as §2
The test system of the next assay is renal cancer cell lines. Kind of assay: NCI 60-cell line protocol, summary over renal lines. The format is cell-based, human. How it is done:
as §2

The test system of a further assay is all 60 cell lines. The assay can be described thus: NCI 60-cell line protocol, all 60 lines. The format is cell-based, human. As to conditions: mean over all 60 cell lines, read-out: All 60 mean GI-50. How it is done:
as §2

The subject of assay [3] is renal cancer cell line A498. The assay can be described thus: 2-cell assay. The class given is cell-based. Here is the method: A sample ([…]) of englerin B was stirred in pyridine (0.25 mL) and acetic anhydride (0.25 mL) overnight at room temperature. The solvents were evaporated under vacuum and the product extracted in dichloromethane. The crude product was purified on pTLC (Si gel 60 F254; 2% MeOH/DCM) to give englerin B monoacetate (2.0 mg, 95%).

The mark [4] stands for this setting: Homo sapiens, SF-295, 48 h, insensitive CNS tumor line, read-out: SF-295 IC50.
The mark [5] stands for this setting: Homo sapiens, UO-31, 48 h, 2-day cell growth assay, sensitive renal line; read-out: UO-31 IC50.
[6] abbreviates: ratio of IC50 SF-295 to IC50 UO-31.
Setting [7] is: median over renal cell lines, read-out: Median GI50.
Where [8] appears, read: insensitive CNS tumor line, read-out: SF-295 IC50.
[9] abbreviates: 2-day cell growth assay, sensitive renal line; read-out: UO-31 IC50.
[10] abbreviates: geometric mean over renal cell lines, read-out: Geometric Mean GI50.
Setting [11] is: mean over renal cell lines, read-out: Mean GI50.

Where two headings read alike, the source gives them in different places.

Regarding `CC1CCC2C1C(OC(=O)C(Cl)C(Cl)c1ccccc1)C1(C(C)C)CC(OC(=O)CO)C2(C)O1` (single isomer, unassigned) [2′,3′-Dichlorodihydroenglerin A (epimer 1)], the IC50 (commonly the midpoint of a concentration-inhibition curve) in the assay with SF-295 (setting [4]) amounted to 90000 nM; with UO-31 [1] (setting [5]) it was 1200 nM. The “Selectivity SF-295/UO-31” value in the assay with UO-31 [1] (setting [6]) was 75. Also, the GI50 with 786-0 (Homo sapiens, 786-0, 48 h) stood at 12000 nM; in the assay on A498 it was 140 nM; in the assay on ACHN it was 140 nM; in the assay on CAKI-1 (Homo sapiens, CAKI-1, 48 h) it was 420 nM; in the assay with RXF-393 it was 930 nM; with SN12C (Homo sapiens, SN12C, 48 h), 1000 nM. Further, the GI50 in the assay on TK-10 (Homo sapiens, TK-10, 48 h) was determined as 18000 nM; in the assay with UO-31 [2] (Homo sapiens, UO-31, 48 h), 390 nM; in the assay on renal cancer cell lines (Homo sapiens, 60 cell, geometric mean over renal cell lines, read-out: Geometric Mean GI50), 940 nM; with renal cancer cell lines (Homo sapiens, 60 cell, mean over renal cell lines, read-out: Mean GI50) it was 4090 nM; in the assay on renal cancer cell lines (setting [7]) it was 680 nM; with all 60 cell lines (Homo sapiens, 60 cell) it was 8300 nM.

Take `CC1CCC2C1C(OC(=O)C(Cl)C(Cl)c1ccccc1)C1(C(C)C)CC(OC(=O)CO)C2(C)O1` (single isomer, unassigned) [2′,3′-Dichlorodihydroenglerin A (epimer 2)]: the half-maximal inhibitory concentration (IC50) in the assay with SF-295 (setting [8]) was determined as 60000 nM; with UO-31 [1] (setting [9]), 750 nM. In the assay with UO-31 [1] (setting [6]), the “Selectivity SF-295/UO-31” value came out at 80. Also, the GI50 in the assay with 786-0 amounted to 12000 nM; in the assay with A498, 49 nM; in the assay on ACHN, 320 nM; in the assay on CAKI-1, 320 nM; with RXF-393 it was 320 nM; in the assay with SN12C it was 1000 nM. Also, the GI50 worked out at 25000 nM with TK-10; 720 nM in the assay with renal cancer cell lines (setting [10]); 5550 nM in the assay with renal cancer cell lines (setting [11]); 320 nM with renal cancer cell lines (setting [7]); 11700 nM in the assay on all 60 cell lines.

For the compound `CC1CCC2C1C(OC(=O)C(Cl)C(O)c1ccccc1)C1(C(C)C)CC(OC(=O)CO)C2(C)O1` (single isomer, unassigned) [2′-Chloro,3′-hydroxydihydroenglerin (epimer 1), 2′-Chloro,3′-hydroxydihydroenglerin A (epimer 1)], the IC50 in the assay on SF-295 (read-out: SF-295 IC50, insensitive CNS tumor line) was > 100000 nM; in the assay with UO-31 [1] (read-out: UO-31 IC50; 2-day cell growth assay, sensitive renal line) it was 960 nM. In the assay on UO-31 [1] (setting [6]), the “Selectivity SF-295/UO-31” value is >104. Further, the GI50 in the assay on 786-0 is 1700 nM; with A498, 180 nM; in the assay with ACHN it was 320 nM; in the assay on CAKI-1, 460 nM; with RXF-393 (Homo sapiens, RXF 393, 48 h), 510 nM; in the assay with SN12C, 630 nM. Further, the GI50 is 17000 nM in the assay with TK-10 (Homo sapiens, TK-10, 48 h); 250 nM with UO-31 [2]; 700 nM in the assay on renal cancer cell lines (setting [10]); 2580 nM in the assay on renal cancer cell lines (setting [11]); 490 nM in the assay on renal cancer cell lines (setting [7]); 6900 nM in the assay with all 60 cell lines (Homo sapiens, 60 cell).

Consider `CC1CCC2C1C(OC(=O)C(Cl)C(O)c1ccccc1)C1(C(C)C)CC(OC(=O)CO)C2(C)O1` (single isomer, unassigned) [2′-Chloro,3′-hydroxydihydroenglerin (epimer 2), 2′-Chloro,3′-hydroxydihydroenglerin A (epimer 2)], for which the values for the IC50 in the assay with SF-295 (setting [8]) and in the assay with UO-31 [1] (setting [9]) were 92000 nM and 8700 nM, respectively. In addition, the “Selectivity SF-295/UO-31” value with UO-31 [1] (setting [6]) is 11. For the same compound, the GI50 came out at 11000 nM in the assay with 786-0; 660 nM with A498; 1380 nM in the assay with ACHN; 9300 nM in the assay with CAKI-1; 390 nM in the assay on RXF-393; 4700 nM in the assay on SN12C. Also, the GI50 with TK-10 is 27000 nM; in the assay on UO-31 [2], 1900 nM; with renal cancer cell lines (setting [10]) it was 3130 nM; in the assay on renal cancer cell lines (setting [11]), 7070 nM; in the assay on renal cancer cell lines (setting [7]), 3320 nM; with all 60 cell lines, 12000 nM.

For `CC1CCC2C1C(OC(=O)C(Cl)C(O)c1ccccc1)C1(C(C)C)CC(OC(=O)CO)C2(C)O1` (single isomer, unassigned) [2′-Chloro,3′-hydroxydihydroenglerin (epimer 3), 2′-Chloro,3′-hydroxydihydroenglerin A (epimer 3)], the results for the IC50 in the assay on SF-295 (setting [8]) and with UO-31 [1] (setting [9]) were 42000 nM and 410 nM, respectively. The “Selectivity SF-295/UO-31” value in the assay on UO-31 [1] (setting [6]) was found to be 102.

Take `CC1CCC2C1C(OC(=O)C(Cl)C(O)c1ccccc1)C1(C(C)C)CC(OC(=O)CO)C2(C)O1` (single isomer, unassigned) [2′-Chloro,3′-hydroxydihydroenglerin (epimer 4), 2′-Chloro,3′-hydroxydihydroenglerin A (epimer 4)]: the IC50 with SF-295 (setting [8]) was found to be 20000 nM; in the assay with UO-31 [1] (setting [9]) it was 16000 nM. The “Selectivity SF-295/UO-31” value in the assay with UO-31 [1] (setting [6]) is reported as 1.25.

Consider `CCOC(c1ccccc1)C(Cl)C(=O)OC1C2C(C)CCC2C2(C)OC1(C(C)C)CC2OC(=O)CO` (stereo not drawn) [2′-Chloro,3′-ethoxydihydroenglerin A], for which the IC50 in the assay with SF-295 (setting [4]) was 35000 nM; with UO-31 [1] (setting [5]), 18000 nM. Moreover, the “Selectivity SF-295/UO-31” value with UO-31 [1] (setting [6]) is on record as 1.94.

As to `CC(C)[C@@]12C[C@@H](OC(=O)CO)[C@@](C)(O1)[C@@H]1CC[C@@H](C)[C@H]1[C@@H]2OC(=O)/C(Cl)=C/c1ccccc1` [2′-Chloroenglerin A], the IC50 in the assay on SF-295 (setting [8]) came to 72000 nM; with UO-31 [1] (setting [9]), 920 nM. For the same compound, the “Selectivity SF-295/UO-31” value with UO-31 [1] (setting [6]) turned out to be 78. In addition, the GI50 is 10000 nM in the assay with 786-0; 28 nM with A498; 41 nM in the assay with ACHN; 35 nM with CAKI-1; 19 nM in the assay with RXF-393; 560 nM in the assay on SN12C. Further, the GI50 in the assay on TK-10 was determined as 21000 nM; with UO-31 [2] it was 35 nM; in the assay on renal cancer cell lines (setting [10]), 210 nM; in the assay on renal cancer cell lines (setting [11]) it was 3960 nM; with renal cancer cell lines (setting [7]) it was 40 nM; in the assay on all 60 cell lines, 5600 nM.

For the compound englerin B monoacetate, the “selectivity against renal cancer cell line A498” value in assay [3] is given as ~400 fold.

The values are drawn from US8410292B2, “Epoxy-guaiane derivatives and treatment of cancer” (The United States of America, as represented by the …, priority 2008, dated 2013).
